This is an account of results in patent publication US7125572B2, “Tyrosinase inhibitor extract” (Kaoder Industry Company, Ltd., priority 2004, dated 2006).

The assay concerns tyrosinase. In words: Determination of tyrosinase inhibitory effect (L-DOPA substrate, absorbance at 475 nm). Particulars: comparison with arbutin, determined in a way described in Example 4.

Experimental: The activity of tyrosinase was determined at the wavelength of 475 nm and calculated from the decrease of the absorbance.
35 μl of the tyrosinase inhibitor extract of Example 1 and 35 μl of 80% propylene glycol were used as the test and control samples. The inhibition percent of the tyrosinase activity was calculated by the equation: Inhibition percentage (%) of the tyrosine activity=[1−(Absorbance of experiment sample)/(Absorbance of control sample)]×100%. The DOPA and tyrosinase solution (1000 units/ml in 16.7 mM potassium phosphate butter) used in the following experiments were purchased from Sigma Corp., USA.
15.1 of tyrosinase solutions was added to each (35 μl) of six samples of tyrosinase inhibitor extract of Example 1. The resultant solutions were maintained at 25. for 0, 1, 2, 3, 4, 5, 6 hours, respectively. 450.1 of L-DOPA substrate was added to each of the solutions.
15.1 of tyrosinase solutions was added to each (35 μl) of three samples of tyrosinase inhibitor extract of Example 1. The resultant solutions were maintained at 25., 37. and 50. for 1 hour, respectively. 450.1 of L-DOPA substrate was added to each of the solutions.
15.1 of tyrosinase solutions was added to each (35 μl) of five samples of tyrosinase inhibitor extract of Example 1. The resultant solutions were maintained at pH 4, 5, 6, 7 and 8 for 1 hour, respectively. […]

Take `OC[C@H]1O[C@@H](Oc2ccc(O)cc2)[C@H](O)[C@@H](O)[C@@H]1O` [Arbutin]: the “% inhibitory Activity” value was 32+−0.0%.
